In patent US5215986A, “5-hydroxy-2-pyrimidinylmethylene oxaza heterocycles” (Warner-Lambert Company, priority 1992, dated 1993):

Key:
5-Lipoxygenase = assay: ARBL whole cell 5-lipoxygenase assay (LTB4 formation in RBL-1 cells); format: cell-based, rat; conditions: 10 μm concentration, A23187 stimulated, LTB4 by RIA
Procedure: (§1) ARBL/ARBC Whole Cell 5-Lipoxygenase and Cyclooxygenase Assays The rat basophilic leukemia cell line (RBL 1) was obtained from the American Type Culture Collection (Rockville, Md.). Radioimmunoassay (RIA) kits of LTB4 and PGF2α were obtained from Amersham (Arlington Heights, Ill.) and Seragen (Boston, Mass.), respectively. RBL-1 cells are grown in suspension culture in Eagle's minimum essential medium supplemented with 12% fetal bovine serum at 37° C. in an incubator supplied with air 5% carbon dioxide. Cells are harvested by centrifugation. They are washed with cold phosphate buffered saline pH 7.4 (PBS; NaCl, 7.1 g; Na2 HPO4, 1.15 g; KH2 PO4, 0.2 g; and KCl, 0.2 g/l). Cells are finally suspended in PBS containing 1.0 mM calcium at a density of 2×10^6 cells/ml. Cells are incubated with and without test agent (in DMSO) (1% DMSO is without effect on arachidonic acid metabolism) for ten minutes at room temperature. Calcium ionophore A23187 (5 μM) is added and cells are incubated for seven minutes at 37° C. The reaction is stopped by chilling the tubes on ice for ten minutes. Cells are separated by centrifugation and the supernatant is stored at -20°. Aliquots (100 μl) are analyzed for LTB4 and PGF2α using radioimmunoassay kits as provided by the supplier. […]

Cyclooxygenase = assay: ARBC whole cell cyclooxygenase assay (PGF2α formation in RBL-1 cells); format: cell-based, rat; conditions: 10 μm, A23187 stimulated, PGF2α by RIA
Procedure: as §1

In the case of `CN1OCC/C(=C\c2nc(C(C)(C)C)c(O)c(C(C)(C)C)n2)C1=O` [(E)-4-[[4,6-Bis(1,1-dimethylethyl)-5-hydroxy-2-pyrimidinyl]methylene]tetrahydro-2-methyl-2H-1,2-oxazin-3-one], the “inhibition for ARBL” value (5-Lipoxygenase) is reported as 84% and the “inhibition for ARBC” value (Cyclooxygenase) is reported as 88%.
